# Test results from patent US10517889B2, “Modulators of SMAD7 expression” (Ionis Pharmaceuticals, Inc., priority 2017, dated 2019).
# Strand notation (5' to 3'): a small letter for the sugar, then the base; units joined by * are phosphorothioate-linked, units joined directly phosphodiester-linked; [ ] holds rarer units or linkages, { } end groups; capitals alone tell only the bases. k = constrained ethyl (cEt); [5mC] = 5-methylcytosine; d = 2'-deoxy (DNA)
# Tested on: human SMAD7 mRNA
# Assay: Antisense inhibition of human SMAD7 mRNA expression in Hep3B cells by 3-10-3 cEt gapmers, 10,000 nM, electroporation (Example 2)
# Type: cell-based
# Details: Hep3B cells, 10,000 nM antisense oligonucleotide, electroporation, approximately 24 hours, RT-PCR primer probe set RTS5062, relative to untreated control cells
# Summary of the method: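 Hep3B, 20,000 cells/well; electroporation, 10,000 nM ASO; ~24 h. Readout: SMAD7 mRNA by qRT-PCR (RTS5062), RIBOGREEN-normalised; % inhibition vs untreated.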
row,Substance,% Inhibition
1,799880 (kT*k[5mC]*k[5mC]*dG*dA*dT*dG*dG*dA*dA*dA*dA*dG*k[5mC]*kT*k[5mC]; antisense) [compound 799880],39%
2,772633 (kG*kG*kT*d[5mC]*dA*dT*dT*dG*dG*dG*d[5mC]*d[5mC]*dG*k[5mC]*kT*kG; antisense) [compound 772633],37%
3,798891 (kG*k[5mC]*k[5mC]*d[5mC]*dT*dT*d[5mC]*dA*d[5mC]*dA*dA*dA*dG*k[5mC]*kT*kG; antisense) [compound 798891],58%
4,798841 (k[5mC]*kT*kG*dA*d[5mC]*dT*d[5mC]*dT*dT*dG*dT*dT*dG*kT*k[5mC]*k[5mC]; antisense) [compound 798841],0%
5,800069 (antisense k[5mC]*kA*kT*dG*dG*d[5mC]*dG*dG*dA*dA*dG*dA*dT*kG*kG*kG) [compound 800069],25%
6,798892 (k[5mC]*k[5mC]*k[5mC]*d[5mC]*dA*dG*d[5mC]*d[5mC]*d[5mC]*dT*dT*d[5mC]*dA*k[5mC]*kA*kA; antisense) [compound 798892],39%
7,799939 (antisense kG*k[5mC]*kA*dT*dT*dT*dA*dA*dT*dT*dT*dG*d[5mC]*kA*kA*k[5mC]) [compound 799939],38%
8,800055 (antisense kA*kT*kA*dA*dA*d[5mC]*dT*dT*dG*dT*dG*dA*dG*k[5mC]*kG*k[5mC]) [compound 800055],8%
9,798872 (kT*kA*kG*dT*d[5mC]*dG*dA*dA*dA*dG*d[5mC]*d[5mC]*dT*kT*kG*kA; antisense) [compound 798872],2%

# Same assay, conditions: Hep3B cells, electroporation with 10,000 nM antisense oligonucleotide, approximately 24 hours, RTS5062, percent inhibition of SMAD7 mRNA relative to untreated control cells
row,Substance,% Inhibition
1,799827 (antisense kA*kA*k[5mC]*dT*dA*d[5mC]*dA*dA*d[5mC]*d[5mC]*dT*dT*dT*kT*kT*kA) [compound 799827],26%
2,799585 (kA*kG*kA*d[5mC]*dA*dA*dG*dA*dT*dG*dT*dT*dA*kT*k[5mC]*kA; antisense) [compound 799585],34%

# Same assay, conditions: Hep3B cells, electroporation with 10,000 nM antisense oligonucleotide, approximately 24 hours, SMAD7 mRNA by RT-PCR (RTS5062), relative to untreated control cells
row,Substance,% Inhibition
1,799890 (antisense k[5mC]*kA*kT*dT*dA*dA*dG*d[5mC]*d[5mC]*dA*dA*dT*dT*kT*kT*k[5mC]) [compound 799890],41%
2,798886 (kT*k[5mC]*kT*dG*d[5mC]*dA*d[5mC]*dG*dG*dT*dA*dA*dA*kG*k[5mC]*k[5mC]; antisense) [compound 798886],29%
3,790485 (k[5mC]*kA*k[5mC]*d[5mC]*dT*dG*dA*dA*d[5mC]*dA*d[5mC]*dT*dT*kT*kG*k[5mC]; antisense) [compound 790485],26%
4,800008 (kG*kA*kA*d[5mC]*dA*dG*dA*d[5mC]*d[5mC]*dA*dG*dA*d[5mC]*k[5mC]*k[5mC]*kT; antisense) [compound 800008],40%
5,798784 (kG*kA*kG*dT*d[5mC]*dG*dG*d[5mC]*dT*dA*dA*dG*dG*kT*kG*kA; antisense) [compound 798784],35%
6,799395 (antisense kT*kT*kA*d[5mC]*dA*dA*dA*dT*dA*d[5mC]*dA*dG*dA*kG*kA*kG) [compound 799395],62%
7,830195 (antisense kA*kA*k[5mC]*d[5mC]*dT*dT*dT*dT*d[5mC]*d[5mC]*dG*dG*dT*kA*kT*kT) [compound 830195],35%
8,798695 (antisense kT*kG*k[5mC]*dG*d[5mC]*d[5mC]*d[5mC]*dT*d[5mC]*d[5mC]*dT*d[5mC]*d[5mC]*kT*k[5mC]*kG) [compound 798695],35%
9,830055 (kT*kT*kG*dG*dG*dT*dG*dA*dG*dT*dA*dA*d[5mC]*k[5mC]*kA*kG; antisense) [compound 830055],57%
10,798867 (kT*kT*kG*dT*dG*dT*dA*d[5mC]*d[5mC]*dA*dA*d[5mC]*dA*kG*k[5mC]*kG; antisense) [compound 798867],29%
11,798683 (antisense kG*k[5mC]*k[5mC]*dT*dG*d[5mC]*dT*dA*dA*dG*dG*dA*dG*k[5mC]*kG*kA) [compound 798683],51%
12,799908 (antisense k[5mC]*kA*kT*dA*dA*dT*dA*dT*dT*dG*dA*d[5mC]*dA*kG*kT*kA) [compound 799908],41%
13,799336 (kA*k[5mC]*kT*dG*d[5mC]*dA*dG*dG*dA*dG*d[5mC]*dA*dG*kT*kG*k[5mC]; antisense) [compound 799336],25%
14,798899 (kG*kG*k[5mC]*dA*dG*d[5mC]*dT*dG*d[5mC]*dT*dG*dA*dT*kG*kA*kA; antisense) [compound 798899],13%
15,799391 (antisense k[5mC]*kG*k[5mC]*d[5mC]*d[5mC]*d[5mC]*dA*dG*d[5mC]*dA*dA*dA*dA*k[5mC]*kT*kT) [compound 799391],0%

# Same assay, conditions: Hep3B cells, electroporation with 10,000 nM antisense oligonucleotide, approximately 24 hours, primer probe set RTS5062, relative to untreated control cells
Substance,% inhibition of SMAD7 mRNA expression,% Inhibition
799235 (kG*kA*kA*dA*dA*dA*d[5mC]*dA*dT*dT*d[5mC]*dA*dG*k[5mC]*kT*kA; antisense) [compound 799235],24%,
798728 (antisense k[5mC]*kT*kT*dT*dG*dG*d[5mC]*dA*d[5mC]*d[5mC]*dT*d[5mC]*dG*k[5mC]*kA*k[5mC]) [compound 798728],41%,
799204 (antisense k[5mC]*kT*k[5mC]*dA*dG*dG*dT*dT*dT*dT*dT*dT*dT*kT*k[5mC]*kA) [compound 799204],36%,
799497 (antisense kA*kA*kG*dA*dA*d[5mC]*dT*d[5mC]*dT*d[5mC]*d[5mC]*dT*dA*kA*kG*k[5mC]) [compound 799497],0%,
799005 (antisense k[5mC]*kG*kT*dG*d[5mC]*dA*d[5mC]*dA*d[5mC]*dA*d[5mC]*dA*dG*k[5mC]*k[5mC]*kG) [compound 799005],0%,
799048 (antisense kT*k[5mC]*k[5mC]*dT*dT*dG*dA*dT*dG*dA*dG*dG*dG*kA*kG*kA) [compound 799048],60%,
790620 (kT*kA*kA*dT*dA*dA*dA*dT*d[5mC]*dT*d[5mC]*dA*dG*kG*kT*kT; antisense) [compound 790620],,30%
799265 (antisense k[5mC]*kT*kT*d[5mC]*d[5mC]*dA*dT*d[5mC]*d[5mC]*dA*dA*d[5mC]*dT*k[5mC]*kT*k[5mC]) [compound 799265],3%,

# Same assay, conditions: Hep3B cells, electroporation, 10,000 nM antisense oligonucleotide, approximately 24 hours, RTS5062, relative to untreated control cells
row,Substance,% inhibition of SMAD7 mRNA expression
1,799538 (kT*kG*k[5mC]*dA*dG*dG*dA*dT*dG*dA*dG*dG*dA*kG*k[5mC]*kT; antisense) [compound 799538],29%
2,799504 (antisense kA*kG*kG*dA*dA*dA*dG*dG*dT*dG*d[5mC]*dT*dG*k[5mC]*k[5mC]*k[5mC]) [compound 799504],15%
3,799678 (antisense k[5mC]*kA*k[5mC]*dA*dA*dG*d[5mC]*dA*d[5mC]*d[5mC]*dT*dG*dT*k[5mC]*k[5mC]*kA) [compound 799678],0%
4,799676 (antisense kG*kA*kA*dA*d[5mC]*d[5mC]*dA*dT*dG*dA*dG*d[5mC]*dT*kG*kT*kT) [compound 799676],64%

# Same assay, conditions: SMAD7 mRNA, Hep3B cells, 10,000 nM antisense oligonucleotide, electroporation, approximately 24 hours, primer probe set RTS5062, relative to untreated control cells
row,Substance,% Inhibition
1,829779 (antisense kG*kG*kG*dA*dG*d[5mC]*dG*dA*dG*dT*dA*dG*dG*kA*k[5mC]*kG) [compound 829779],58%
2,829719 (antisense kG*k[5mC]*k[5mC]*dA*dG*dT*d[5mC]*dT*d[5mC]*d[5mC]*d[5mC]*dG*dG*kA*kG*kG) [compound 829719],15%
3,829750 (antisense k[5mC]*kG*kT*d[5mC]*d[5mC]*dT*d[5mC]*dG*d[5mC]*d[5mC]*dG*d[5mC]*d[5mC]*kG*kG*kG) [compound 829750],33%

# Same assay, conditions: SMAD7 mRNA, Hep3B cells, electroporation with 10,000 nM antisense oligonucleotide, approximately 24 hours, primer probe set RTS5062, relative to untreated control cells
row,Substance,% Inhibition
1,829916 (antisense kG*kA*kA*dG*dA*dG*dT*dT*dA*dG*dG*dT*dG*kT*k[5mC]*kA) [compound 829916],33%
2,829996 (kT*kT*kT*dG*dT*d[5mC]*dT*dT*dA*dG*d[5mC]*dT*dG*kT*kG*kG; antisense) [compound 829996],54%
3,829970 (kT*kG*kG*dA*dA*dG*dG*dG*dA*dA*d[5mC]*d[5mC]*d[5mC]*k[5mC]*k[5mC]*kA; antisense) [compound 829970],0%
4,829921 (antisense kT*k[5mC]*kA*dT*dA*d[5mC]*dG*dA*dG*dT*dG*dT*dA*kT*kG*kA) [compound 829921],10%
5,829893 (antisense kT*kG*kA*dT*d[5mC]*dT*dG*d[5mC]*dA*d[5mC]*dG*dG*dT*kA*kA*kA) [compound 829893],14%
6,830006 (antisense kA*k[5mC]*kT*d[5mC]*dA*d[5mC]*d[5mC]*dA*dG*dT*dT*dG*dG*kT*kT*kT) [compound 830006],0%
7,830013 (antisense kG*kT*kG*d[5mC]*d[5mC]*dA*dG*dT*d[5mC]*dT*d[5mC]*dA*dA*kA*kT*kG) [compound 830013],55%
8,829831 (kG*kA*k[5mC]*d[5mC]*dG*dA*dT*d[5mC]*d[5mC]*d[5mC]*d[5mC]*dA*dG*kG*k[5mC]*kT; antisense) [compound 829831],9%
9,829803 (kA*kG*kT*dT*d[5mC]*dG*d[5mC]*dA*dG*dA*dG*dT*d[5mC]*kG*kG*k[5mC]; antisense) [compound 829803],35%
